Assay results: patent US6649654B1, “Methods for identifying and using IKK inhibitors” (The Regents of the University of California, priority 1999, dated 2003)
Entries after “also recorded” stand apart in the source; their conditions may differ.

Columns and labels:
Type in all cases: cell-based
IKK [1] = test: MEKK1-induced IKK activity in COS cells; details: data not shown
Experimental: (§1) Cells used in the experiments described herein were cultured in either RPMI 1640 (Jurkat cells) or DMEM (HeLa and COS cells), supplemented with 10% FBS and antibiotics. Cells were stimulated with either 25 ng/ml TPA, 20 ng/ml recombinant TNFα, or 10 ng/ml interleukin 1β (Sigma). PGA1, 15dPGJ2, T×B2, LTB4, AA and other PGs (Cayman) dissolved in ethanol were used as well, as known in the art (See e.g., Rossi et al., 94:746-750 [1997]). Controls received equal amounts of ethanol. Transfections were performed using Lipofectamine Plus (GIBCO) for HeLa and COS cells and DEAE-dextran (Sigma) for Jurkat cells. Xpress-tagged NIK, Xpress-tagged MEKK1, HA-tagged IKKα, and HA-tagged IKKβ were also used (See e.g., Zandi et al., Science 281:1360-1363 [1998]; and Delhase et al., Science 284:309-313 [1999]). COX2 and cPLA2 expression vectors were obtained from Dr. L. Feng (See also, Hirose et al., J. Am. Soc. Nephrol., 9:408-416 [1998]). PGD synthase was cloned from HT29 colon carcinoma cell line cDNA by PCR and subcloned into a pCDNA3 vector. […]
(§2) Cell lysates were incubated with anti-IKKα (Pharmingen), anti-HA (12CA5; Pharmingen), anti-JNK1 (333.8; Pharmingen), or anti-p38 (New England Biolabs) for 2 hours. […] Endogenous IKK, HA-tagged IKKα, endogenous JNK1, and p38 activities were determined with GST-1κBα(1-54), GST-c-Jun(1-79), and GST-ATF2 as substrates.

IKK [2] = target: T1, IKK (Homo sapiens, UniProt O14920+O15111); test: Endogenous IKK activity (kinase assay) in Jurkat cells stimulated with TNFα or TPA; set-up: endogenous in cells
T1 sequence (O14920 whole entry): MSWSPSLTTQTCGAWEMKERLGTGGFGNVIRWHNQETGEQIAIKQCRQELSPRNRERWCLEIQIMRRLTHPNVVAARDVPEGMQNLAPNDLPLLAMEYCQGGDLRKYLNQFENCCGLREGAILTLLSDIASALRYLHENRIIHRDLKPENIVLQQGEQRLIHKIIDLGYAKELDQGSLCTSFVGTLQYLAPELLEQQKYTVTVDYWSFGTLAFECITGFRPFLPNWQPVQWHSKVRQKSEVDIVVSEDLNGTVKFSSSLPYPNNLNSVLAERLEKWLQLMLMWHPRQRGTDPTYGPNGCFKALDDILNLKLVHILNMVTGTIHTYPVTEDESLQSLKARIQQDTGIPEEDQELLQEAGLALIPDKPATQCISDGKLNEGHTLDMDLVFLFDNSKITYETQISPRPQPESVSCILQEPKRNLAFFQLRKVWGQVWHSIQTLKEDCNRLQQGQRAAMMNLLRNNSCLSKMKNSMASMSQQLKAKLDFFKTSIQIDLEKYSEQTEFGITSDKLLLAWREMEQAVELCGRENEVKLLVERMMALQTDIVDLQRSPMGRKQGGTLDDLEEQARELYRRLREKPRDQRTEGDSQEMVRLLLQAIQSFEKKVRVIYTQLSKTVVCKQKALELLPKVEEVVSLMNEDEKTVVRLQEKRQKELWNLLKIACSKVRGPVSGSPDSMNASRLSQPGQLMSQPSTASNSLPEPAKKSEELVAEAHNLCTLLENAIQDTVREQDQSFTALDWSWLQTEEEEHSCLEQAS
T1 sequence (O15111 whole entry): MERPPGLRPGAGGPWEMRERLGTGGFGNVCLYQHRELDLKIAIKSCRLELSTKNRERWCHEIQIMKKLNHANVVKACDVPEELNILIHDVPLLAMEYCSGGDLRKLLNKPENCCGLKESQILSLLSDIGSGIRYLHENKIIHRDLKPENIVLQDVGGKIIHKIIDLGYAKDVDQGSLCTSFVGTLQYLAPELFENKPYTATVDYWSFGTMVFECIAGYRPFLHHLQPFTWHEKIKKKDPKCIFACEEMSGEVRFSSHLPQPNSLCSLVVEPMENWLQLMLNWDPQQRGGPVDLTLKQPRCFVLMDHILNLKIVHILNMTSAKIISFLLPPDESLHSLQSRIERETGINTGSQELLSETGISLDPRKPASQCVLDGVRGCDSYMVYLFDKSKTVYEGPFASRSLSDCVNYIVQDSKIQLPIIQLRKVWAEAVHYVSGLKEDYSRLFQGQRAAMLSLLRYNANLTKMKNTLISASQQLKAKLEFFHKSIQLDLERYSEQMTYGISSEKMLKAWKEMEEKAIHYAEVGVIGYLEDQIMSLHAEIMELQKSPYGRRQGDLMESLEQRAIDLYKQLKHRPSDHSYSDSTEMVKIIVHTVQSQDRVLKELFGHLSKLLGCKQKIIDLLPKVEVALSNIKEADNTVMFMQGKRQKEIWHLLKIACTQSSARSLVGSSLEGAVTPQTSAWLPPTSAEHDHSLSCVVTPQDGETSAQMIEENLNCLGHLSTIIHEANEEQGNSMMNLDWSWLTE
T1 sequence (Q9Y6K9 whole entry partner): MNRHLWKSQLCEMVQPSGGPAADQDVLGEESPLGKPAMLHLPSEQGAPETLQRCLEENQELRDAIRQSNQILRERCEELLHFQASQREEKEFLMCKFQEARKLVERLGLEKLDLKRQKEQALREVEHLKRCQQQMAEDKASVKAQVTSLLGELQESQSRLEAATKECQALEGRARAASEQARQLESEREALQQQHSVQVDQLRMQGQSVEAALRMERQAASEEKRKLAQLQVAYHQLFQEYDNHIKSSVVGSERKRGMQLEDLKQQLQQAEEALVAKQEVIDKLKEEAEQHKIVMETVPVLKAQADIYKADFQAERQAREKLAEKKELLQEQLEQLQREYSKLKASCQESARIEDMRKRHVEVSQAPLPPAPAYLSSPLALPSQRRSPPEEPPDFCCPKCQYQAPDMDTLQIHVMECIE
Experimental: as §1
as §2, with “substrates. […]” for “substrates.”

IKK [3] = target: T1, IKK; test: TNFα-induced IKK activity in human peripheral blood monocytes
IKKβ(C179A) = target: T2, IKKβ(C179A) (Homo sapiens, UniProt O14920, C179A); test: 2XNFκB-LUC reporter in HeLa cells with NIK and IKKβ(C179A); set-up: FLAG; made in house; details: luciferase at 24 hours, FIG. 6E
T2 sequence (O14920 1-756 C179A): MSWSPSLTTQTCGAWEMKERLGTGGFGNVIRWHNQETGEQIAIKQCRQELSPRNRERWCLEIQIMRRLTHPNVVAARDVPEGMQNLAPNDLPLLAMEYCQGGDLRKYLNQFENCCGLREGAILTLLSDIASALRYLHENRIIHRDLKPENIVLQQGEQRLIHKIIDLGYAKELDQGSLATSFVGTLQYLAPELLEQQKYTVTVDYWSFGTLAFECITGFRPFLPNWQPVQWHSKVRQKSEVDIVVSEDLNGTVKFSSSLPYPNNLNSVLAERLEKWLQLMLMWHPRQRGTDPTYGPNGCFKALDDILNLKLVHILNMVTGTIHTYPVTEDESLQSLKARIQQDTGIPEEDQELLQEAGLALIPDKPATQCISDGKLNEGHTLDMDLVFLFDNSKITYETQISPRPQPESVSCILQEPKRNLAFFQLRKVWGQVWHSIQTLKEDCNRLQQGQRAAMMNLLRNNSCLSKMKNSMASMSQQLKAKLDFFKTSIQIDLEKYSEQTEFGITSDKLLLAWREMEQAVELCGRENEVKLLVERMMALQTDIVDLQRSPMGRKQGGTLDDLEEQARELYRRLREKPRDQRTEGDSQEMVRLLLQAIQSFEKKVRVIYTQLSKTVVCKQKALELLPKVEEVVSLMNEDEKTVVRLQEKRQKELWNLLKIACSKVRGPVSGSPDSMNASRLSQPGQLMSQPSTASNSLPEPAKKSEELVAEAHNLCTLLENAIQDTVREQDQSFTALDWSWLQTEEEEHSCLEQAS
Experimental: Recombinant IKKβ(C179A) was also resistant to concentrations of 15dPGJ2 that were inhibitory to wild-type IKKβ (as shown in FIG. 6D), and also to PGA1. An NF-κB dependent transcriptional reporter (2XNFκB-LUC) was preincubated with expression vector encoding either wild-type IKKβ or IKKβ(C179A). A NIK expression vector was included to ensure maximal IKK activation. […] FIG. 6E provides the results for HeLa cells transiently transfected with a 2×NF-κB-LUC reporter, a NIK expression vector and expression vectors for wild type IKKβ or IKKβ(C179A). At 3 hours post-transfection, cells were treated with 15dPGJ2 and at 24 hours, the luciferase activities were determined for duplicate samples. In each case, the maximal activity achieved in the absence of inhibitor was given an arbitrary value of 100% and the other values were calculated relative to this one.

SMILES | effect on MEKK1-induced IKK activity (IKK [1]) | effect on IKK activity (IKK [2]; 24 μM PGA1 2 hours, TNFα or TPA) | effect on IKK activity after 15 minute exposure (IKK [2]; 15-min exposure, TPA 15 minutes) | effect on TNFα-induced IKK activity (IKK [3]) | sensitivity of NF-κB activation through IKKβ(C179A) (IKKβ(C179A))
CCCCC[C@H](O)/C=C/[C@H]1C=CC(=O)C1CCCCCCC(=O)O (some centres unmarked) [PGA1, prostaglandin A1] | inhibited | inhibit IKK activity; also recorded: inhibited | partially inhibit | – | –
CCCCC/C=C/C=C1/C(=O)C=C[C@@H]1C/C=C\CCCC(=O)O [15dPGJ2, 15-deoxy-Δ^12-14-PGJ2] | – | – | – | inhibited | insensitive
